Source: PMC12917756, “Unveiling BCL-xL-specific PROTAC efficiency and dissociation pathways using native mass spectrometry” (Chemical Science, 2026)

Target: T1, VHL (VCB E3 ligase complex) (Homo sapiens, UniProt P40337)
T1 construct: VCB complex (VHL·EloB·EloC); with Elongin B, Elongin C
Test: fluorescence polarization; ternary complex with BCL-xL by native MS
Assay type: binding

T1 sequence (P40337 whole entry): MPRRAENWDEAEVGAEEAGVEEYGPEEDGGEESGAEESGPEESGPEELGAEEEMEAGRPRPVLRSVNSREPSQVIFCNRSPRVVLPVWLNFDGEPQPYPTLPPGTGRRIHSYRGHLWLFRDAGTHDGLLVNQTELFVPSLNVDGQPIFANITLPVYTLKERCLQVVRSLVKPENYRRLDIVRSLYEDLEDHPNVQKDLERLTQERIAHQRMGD
T1 sequence (Q15370 whole entry partner): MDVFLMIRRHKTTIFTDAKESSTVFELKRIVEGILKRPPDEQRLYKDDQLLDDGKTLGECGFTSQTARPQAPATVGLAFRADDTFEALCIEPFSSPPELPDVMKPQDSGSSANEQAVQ
T1 sequence (Q15369 whole entry partner): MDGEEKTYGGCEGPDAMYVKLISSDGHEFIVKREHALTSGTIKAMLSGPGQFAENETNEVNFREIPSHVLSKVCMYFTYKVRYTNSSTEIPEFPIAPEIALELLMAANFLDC

SMILES: Cc1ncsc1-c1ccc([C@H](C)NC(=O)[C@@H]2C[C@@H](O)CN2C(=O)[C@@H](NC(=O)CCCCCC(=O)N2CCN(CC[C@H](CSc3ccccc3)Nc3ccc(S(=O)(=O)NC(=O)c4ccc(N5CCN(CC6=C(c7ccc(Cl)cc7)CCC(C)(C)C6)CC5)cc4)cc3S(=O)(=O)C(F)(F)F)CC2)C(C)(C)C)cc1 [DT2216]
- IC50: 10.6 µM
